From US11766427B2, “Repurposing compounds for the treatment of infections and for modulating the composition of the gut microbiome” (EUROPEAN MOLECULAR BIOLOGY LABORATORY, priority 2018, dated 2023)
Counter-ions that a name gives are not always drawn.

Assays:
[1] = system: 40 different bacterial species; test: Prestwick Chemical Library growth screen, whole panel (hits, anticommensal activity); format: cell-based, human gut isolates; details: for anticommensal activity in the screen (in words): 20 μM, 40 strains, FDR<0.01
[2] = system: Clostridium perfringens (NT5032); format: cell-based; details: screen at 20 μM
[3] = system: Clostridium difficile (NT5083); test: Prestwick Chemical Library growth screen (OD578 growth curves, AUC); format: cell-based; details: screen at 20 μM
[4] = system: Bacteroides fragilis (ET) (NT5033); format: cell-based, Bacteroides fragilis enterotoxigenic; details: screen at 20 μM
[5] = system: Bacteroides ovatus (NT5054); test: Prestwick Chemical Library growth screen (OD578 growth curves, AUC); format: cell-based; details: FIG. 8b, three biological replicates, 20 μM
[6] = number of species inhibited of 40 different bacterial species tested
[7] = number of the 40 bacterial species tested whose growth is inhibited, Table 7 broad-spectrum compounds
[8] = number of the 40 strains inhibited at 20 μM (FDR<0.01)

## C[C@H]1O[C@H](O[C@H]2[C@H](O)[C@@H](O)[C@@H](O[C@H]3[C@H](O)[C@@H](O)C(O)O[C@@H]3CO)O[C@@H]2CO)[C@H](O)[C@@H](O)[C@@H]1N[C@H]1C=C(CO)[C@@H](O)[C@H](O)[C@H]1O (stereo partly drawn) [Acarbose]
[1]; [6]
  n_hit: 6

## C=C1/C(=C\C=C2/CCC[C@]3(C)[C@@H]([C@H](C)CCCC(C)C)CC[C@@H]23)C[C@@H](O)C[C@@H]1O [Alfacalcidol]
[2]
  selective inhibition of the growth of C. perfringens bacteria (in words): selectively inhibiting the growth
[1]; [6]
  n_hit: 7

## CCCCc1oc2ccccc2c1C(=O)c1cc(I)c(OCCN(CC)CC)c(I)c1 [Amiodarone hydrochloride]
[1]; [7]
  n_hit: 10

## CCOC(=O)C1=C(COCCN)NC(C)=C(C(=O)OC)C1c1ccccc1Cl (stereo not drawn) [Amlodipine]
[1]; [8]
  n_hit: 2

## O=C1c2c(O)cccc2Cc2cccc(O)c21 [Anthralin]
[1]; [7]
  n_hit: 11

## C[C@@H](O[C@H]1OCCN(Cc2n[nH]c(=O)[nH]2)[C@H]1c1ccc(F)cc1)c1cc(C(F)(F)F)cc(C(F)(F)F)c1 [Aprepitant]
[1]; [7]
  n_hit: 10

## O=C1CCc2ccc(OCCCCN3CCN(c4cccc(Cl)c4Cl)CC3)cc2N1 [Aripiprazole]
[1]; [6]
  n_hit: 3

## COc1ccc(CCN2CCC(Nc3nc4ccccc4n3Cc3ccc(F)cc3)CC2)cc1 [Astemizole]
[1]; [7]
  n_hit: 10

## Nc1ncn(C2OC(CO)C(O)C2O)c(=O)n1 (stereo not drawn) [Azacytidine-5]
[2]
  selective inhibition of the growth of C. perfringens bacteria (in words): selectively inhibiting the growth
[1]; [6]
  n_hit: 1

## Cn1cnc([N+](=O)[O-])c1Sc1ncnc2nc[nH]c12 [Azathioprine]
[3]
  inhibition of the growth of C. difficile bacteria (in words): effective in inhibiting the growth
[1]; [8]
  n_hit: 7

## CC(C)COCC(CN(Cc1ccccc1)c1ccccc1)N1CCCC1 (stereo not drawn) [Bepridil hydrochloride]
[1]; [7]
  n_hit: 14

## CC1(C)[C@@H](OC(=O)CCC(=O)O)CC[C@]2(C)[C@H]3C(=O)C=C4[C@@H]5C[C@@](C)(C(=O)O)CC[C@]5(C)CC[C@@]4(C)[C@]3(C)CC[C@@H]12 [Carbenoxolone disodium salt]
[3]
  inhibition of the growth of C. difficile bacteria (in words): effective in inhibiting the growth
[1]; [8]
  n_hit: 2

## CN(C)CCCN1c2ccccc2Sc2ccc(Cl)cc21 [Chlorpromazine hydrochloride]
[2]
  selective inhibition of the growth of C. perfringens bacteria (in words): selectively inhibiting the growth
[1]; [6]
  n_hit: 6

## COCCOC(=O)C1=C(C)NC(C)=C(C(=O)OC/C=C/c2ccccc2)C1c1cccc([N+](=O)[O-])c1 (stereo not drawn) [Cilnidipine]
[4]
  selective inhibition of the growth of an enterotoxigenic strain of Bacteroides fragilis (in words): selectively inhibiting the growth
[3]
  inhibition of the growth of C. difficile bacteria (in words): effective in inhibiting the growth
[1]; [8]
  n_hit: 5

## Clc1ccc(Cn2c(CN3CCCC3)nc3ccccc32)cc1 [Clemizole hydrochloride]
[1]; [7]
  n_hit: 15

## CC(=O)Oc1cccc2c1C(=O)c1c(OC(C)=O)cc(C(=O)O)cc1C2=O [Diacerein]
[5]
  effect on growth curves (normalized OD/AUC) of Bacteroides ovatus (in words): almost completely inhibits the growth
[1]; [7]
  n_hit: 33

## O=c1oc2ccccc2c(O)c1Cc1c(O)c2ccccc2oc1=O [Dicumarol]
[1]; [7]
  n_hit: 10

## CCCCC(=O)O[C@H]1CC[C@H]2[C@@H]3CCc4cc(O)ccc4[C@H]3CC[C@]12C [Estradiol Valerate]
[1]; [7]
  n_hit: 11

## C=C(CC)C(=O)c1ccc(OCC(=O)O)c(Cl)c1Cl [Ethacrynic acid]
[4]
  selective inhibition of the growth of an enterotoxigenic strain of Bacteroides fragilis (in words): selectively inhibiting the growth
[2]
  selective inhibition of the growth of C. perfringens bacteria (in words): selectively inhibiting the growth
[1]; [6]
  n_hit: 6

## CCN(CC)C(C)CN1c2ccccc2Sc2ccccc21 (stereo not drawn) [Ethopropazine hydrochloride]
[1]; [7]
  n_hit: 11

## CCOC(=O)/C=C(C)/C=C/C=C(C)/C=C/c1c(C)cc(OC)c(C)c1C [Etretinate]
[2]
  selective inhibition of the growth of C. perfringens bacteria (in words): selectively inhibiting the growth
[1]; [6]
  n_hit: 1

## CC(NCCC(c1ccccc1)c1ccccc1)c1ccccc1 (stereo not drawn) [Fendiline hydrochloride]
[3]
  inhibition of the growth of C. difficile bacteria (in words): effective in inhibiting the growth
[1]; [8]
  n_hit: 8

## O=C(O)Cc1sc(-c2ccccc2)nc1-c1ccc(Cl)cc1 [Fentiazac]
[3]
  inhibition of the growth of C. difficile bacteria (in words): effective in inhibiting the growth
[1]; [8]
  n_hit: 1

## O=C(O)c1ccccc1Nc1cccc(C(F)(F)F)c1 [Flufenamic acid]
[1]; [6]
  n_hit: 4

## Nc1nc2ncc(CNc3ccc(C(=O)N[C@@H](CCC(=O)O)C(=O)O)cc3)nc2c(=O)[nH]1 [Folic acid]
[1]; [6]
  n_hit: 2

## Nc1ccn([C@@H]2O[C@H](CO)[C@@H](O)C2(F)F)c(=O)n1 [Gemcitabine]
[2]
  selective inhibition of the growth of C. perfringens bacteria (in words): selectively inhibiting the growth
[1]; [6]
  n_hit: 2

## COc1ccc2c(c1)C(=O)N(CCc1ccc(S(=O)(=O)NC(=O)NC3CCCCC3)cc1)C(=O)C2(C)C [Gliquidone]
[3]
  inhibition of the growth of C. difficile bacteria (in words): effective in inhibiting the growth
[1]; [8]
  n_hit: 1

## COC1=C(OC)C(=O)C(CCCCCCCCCCO)=C(C)C1=O [Idebenone]
[2]
  selective inhibition of the growth of C. perfringens bacteria (in words): selectively inhibiting the growth
[1]; [6]
  n_hit: 3

## CCOC(=O)C1=C(C)NC(C)=C(C(=O)OCC)C1c1ccccc1/C=C/C(=O)OC(C)(C)C [Lacidipine]
[3]
  inhibition of the growth of C. difficile bacteria (in words): effective in inhibiting the growth
[1]; [8]
  n_hit: 6

## CCOC(=O)N1CCC(=C2c3ccc(Cl)cc3CCc3cccnc32)CC1 [Loratadine]
[1]; [7]
  n_hit: 15

## Cc1ccc(Cl)c(Nc2ccccc2C(=O)O)c1Cl [Meclofenamic acid]
[4]
  selective inhibition of the growth of an enterotoxigenic strain of Bacteroides fragilis (in words): selectively inhibiting the growth
[5]
  effect on growth curves (normalized OD/AUC) of Bacteroides ovatus (in words): just below the hit threshold
[1]; [6]
  n_hit: 5

## Cc1cccc(CN2CCN(C(c3ccccc3)c3ccc(Cl)cc3)CC2)c1 (stereo not drawn) [Meclozine dihydrochloride]
[3]
  inhibition of the growth of C. difficile bacteria (in words): effective in inhibiting the growth
[1]; [8]
  n_hit: 8

## S=c1nc[nH]c2nc[nH]c12 [Mercaptopurine]
[3]
  inhibition of the growth of C. difficile bacteria (in words): effective in inhibiting the growth
[1]; [8]
  n_hit: 4

## CSc1ccc2c(c1)C(N1CCN(C)CC1)Cc1ccccc1S2.O=C(O)/C=C\C(=O)O (stereo not drawn) [Methiothepin maleate]
[1]; [7]
  n_hit: 10

## CN1CCCC(CC2c3ccccc3Sc3ccccc32)C1 (stereo not drawn) [Metixene hydrochloride]
[4]
  selective inhibition of the growth of an enterotoxigenic strain of Bacteroides fragilis (in words): selectively inhibiting the growth
[1]; [6]
  n_hit: 9

## CC#C[C@]1(O)CC[C@H]2[C@@H]3CCC4=CC(=O)CCC4=C3[C@@H](c3ccc(N(C)C)cc3)C[C@@]21C [Mifepristone]
[3]
  inhibition of the growth of C. difficile bacteria (in words): effective in inhibiting the growth
[1]; [8]
  n_hit: 3

## C[C@@H]1C[C@H]2[C@@H]3CCC4=CC(=O)C=C[C@]4(C)[C@@]3(Cl)[C@@H](O)C[C@]2(C)[C@@]1(OC(=O)c1ccco1)C(=O)CCl [Mometasone furoate]
[1]; [6]
  n_hit: 1

## CC(C)(O)c1ccccc1CC[C@@H](SCC1(CC(=O)O)CC1)c1cccc(/C=C/c2ccc3ccc(Cl)cc3n2)c1 [Montelukast]
[1]; [8]
  n_hit: 8

## CC(=O)O[C@H]1C(=O)[C@@]2(C)[C@H]([C@H](OC(=O)c3ccccc3)[C@]3(O)C[C@H](OC(=O)[C@H](O)[C@@H](NC(=O)c4ccccc4)c4ccccc4)C(C)=C1C3(C)C)[C@]1(OC(C)=O)CO[C@@H]1C[C@@H]2O [Paclitaxel]
[2]
  selective inhibition of the growth of C. perfringens bacteria (in words): selectively inhibiting the growth
[1]; [6]
  n_hit: 1

## O=C1c2ccccc2C(=O)C1c1ccccc1 [Phenindione]
[2]
  selective inhibition of the growth of C. perfringens bacteria (in words): selectively inhibiting the growth
[1]; [6]
  n_hit: 1

## CNCCCC1c2ccccc2C=Cc2ccccc21 [Protriptyline hydrochloride]
[4]
  selective inhibition of the growth of an enterotoxigenic strain of Bacteroides fragilis (in words): selectively inhibiting the growth
[1]; [6]
  n_hit: 8

## CCCc1nc2c(C)cc(-c3nc4ccccc4n3C)cc2n1Cc1ccc(-c2ccccc2C(=O)O)cc1 [Telmisartan]
[3]
  inhibition of the growth of C. difficile bacteria (in words): effective in inhibiting the growth
[1]; [8]
  n_hit: 4

## N[C@@H](Cc1cc(I)c(Oc2cc(I)c(O)c(I)c2)c(I)c1)C(=O)O [Thyroxine (L)]
[1]; [6]
  n_hit: 3

## O=C(O)Cc1cc(I)c(Oc2ccc(O)c(I)c2)c(I)c1 [Tiratricol]
[1]; [7]
  n_hit: 14

## Cc1cccc(N(C)C(=S)Oc2ccc3ccccc3c2)c1 [Tolnaftate]
[4]
  selective inhibition of the growth of an enterotoxigenic strain of Bacteroides fragilis (in words): selectively inhibiting the growth
[1]; [6]
  n_hit: 5

## Cc1cc(-n2c(=O)[nH]c(=O)n(C)c2=O)ccc1Oc1ccc(SC(F)(F)F)cc1 [Toltrazuril]
[4]
  selective inhibition of the growth of an enterotoxigenic strain of Bacteroides fragilis (in words): selectively inhibiting the growth
[1]; [6]
  n_hit: 7

## CCOC1O[C@H]([C@@H](COCc2ccccc2)OCc2ccccc2)[C@H](OCc2ccccc2)[C@H]1O (stereo partly drawn) [Tribenoside]
[3]
  inhibition of the growth of C. difficile bacteria (in words): effective in inhibiting the growth
[1]; [8]
  n_hit: 1

## Cc1c(C)c2c(c(C)c1O)CCC(C)(COc1ccc(CC3SC(=O)NC3=O)cc1)O2 (stereo not drawn) [Troglitazone]
[1]; [7]
  n_hit: 13

## O=C1Nc2ccc(Cl)cc2[C@@](C#CC2CC2)(C(F)(F)F)O1 [efavirenz]
[1]
  anticommensal activity in the screen (in words): anticommensal activity

## CCOC(=O)Nc1ccc2c(c1)N(C(=O)CCN1CCOCC1)c1ccccc1S2 [moricizine]
[5]
  effect on growth curves (normalized OD/AUC) of Bacteroides ovatus (in words): a hit with partial but strong growth inhibition

## O=c1[nH]c(=O)n([C@H]2C[C@H](O)[C@@H](CO)O2)cc1C(F)(F)F [trifluridine]
[1]
  anticommensal activity in the screen (in words): anticommensal activity
